Structures are written as SMILES. Counter-ions that a name gives are not always drawn.

Eight compounds from US20110065749A1, “METHOD AND PHARMACEUTICAL COMPOSITION FOR TREATMENT OF MENTAL DISORDERS” (ACTIVE CO. LTD., priority 2008, published 2011) can be followed below.

Assay type in all cases: in vivo, human
One series concerns Alzheimer-Type Dementia. Briefly: Case 4: Alzheimer-type dementia patient. From the text: Case 4: Alzheimer-Type Dementia
Another series concerns Alcoholism. Briefly: Case 6: alcoholism patient. As to conditions: before Cephadol. From the text: Case 6: Alcoholism Patient was a office worker, who was drinking 1 to 2 liters of beer and 3 to 5 glasses of distilled spirit or whisky with water every day. They were drinking alcohol in daytime on Sundays, and suffering from a complication of liver dysfunction.
Series [1] deals with manic state of bipolar I disorder. Briefly: Case 3: manic-depressive illness patient. The following applies: 1,200 mg, before Cephadol. How it is done:
Case 3: Manic-Depressive Illness Patient was a person, who had continuously been in a manic state of bipolar I disorder for over one month. An antiepileptic drug, or 1,200 mg of Limas®, was ineffective. Antipsychotic drugs were not usable due to significant side effects. […] When they discontinued the administration of Cephadol®, the manic state appeared after 5 days.

Series [2] concerns Fibromyalgia. Briefly: Case 18: fibromyalgia (4) patient. The following applies: before Cephadol. From the text:
Case 18: Fibromyalgia (4)
A person (housewife) is a patient with depression, having received regular medical treatment since seven years ago. […] However, a diagnosis with autoimmune disease or inflammatory disease was negative from their blood test. Due to back pain and fingertip pain, they were unable to make household work, and it was painful for them to hold even a light object by hand. They had pain at 15 points among the 18 tender points of the whole body, and was diagnosed with fibromyalgia. […] They had to stay in bed all day long, and such a condition lasted for the long term.

The next series concerns Bulimia. Briefly: Case 8: bulimia (2) patient. The following applies: 40 mg. From the text: Patient was a person, who had been suffering from bulimia. The bulimia persisted even after their marriage and childbearing.
The next series relates to depression. Kind of series: Case 9: depressed symptoms patient, HAMD. As to conditions: 40 mg, before Cephadol. From the text:
For evaluation of the state of depression, for example, Hamilton's rating scale for depression (HAMD) is available. The HAMD was developed by Max Hamilton in 1960 for the purpose of measuring the severity of a patient diagnosed with depression (Hamilton, M., Journal of Neurology, Neurosurgery & Psychiatry, 23-56-62 (1960) and Hamilton, M., “Development of rating scale for primary depressive illness”, British Journal of Social and Clinical Psychology, 6: 278-296 (1967)). In view of its high usefulness, it is a representative scale of evaluation for depression, widely used in clinical researches and practices. The 17 item version is used for clinical trials of antidepressants in Japan, whereas the 21 item version and the 24 item version are used in Europe or other countries.
When the severity is calculated using Hamilton's rating scale for depression (HAMD), each item is evaluated with three grades of 0-2, or five grades of 0-4. For example, the case is diagnosed as severe where the point is 20 or higher and, as the point decreases, the symptom is diagnosed as being improved.
Case 9: Depressed Symptoms
Administration to the patient of 75 mg/day Cephadol® reduced the HAMD score from 20 points to 7 points after 3 days.

Series [3] relates to Fibromyalgia. Kind of series: Case 15: fibromyalgia (1) patient. The following applies: maximum doses, three years, before Cephadol. The method, then:
They then visited the inventor's clinic. When the inventor started the treatment with 75 mg/day Cephadol®, systemic pain of the patient was improved in two days. […] As a result, they became able to perform usual household work, go outside, and further make a trip.

The subject of series [4] is Fibromyalgia. Briefly: Case 16: fibromyalgia (2) patient. The following applies: before Cephadol. From the text:
[…] There were persistent systemic malaise, lassitude, depressed mood, sleeplessness, neck stiffness and systemic pain. Their score of depression on Hamilton D scale was 25 to 28. No hematological abnormality was detected. As a result of overall judgment based on examinations including a tender point examination, they were diagnosed as having fibromyalgia. They were unresponsive to tricyclic or tetracyclic antidepressants, SSRIs, SNRIs, and Moclobemide. Then, they continued the treatment with 60 mg/day fluoxetine. […] It was concluded that the onset of their depression was due to the systemic pain, and the depression was improved by the drastic improvement of the systemic pain.

Take `COc1cc2c(cc1OC)C(=O)C(CC1CCN(Cc3ccccc3)CC1)C2` (stereo not shown) [donepezil hydrochloride]: in the series with Alzheimer-Type Dementia (donepezil hydrochloride together with 50 mg Cephadol before sleeping), the dementia entry is “significant improvement of the dementia”. Further, the “side effect that made treatment difficult” value in the series with Alzheimer-Type Dementia (donepezil hydrochloride without Cephadol) is “excitatory side effect”.

As to `N#CN` [Cyanamide], the “efficacy of earlier drugs on alcoholism” value with Alcoholism was “without any efficacy”.

Take `O=C([O-])[O-].[Li+].[Li+]` [Limas®]: in series [1], the “efficacy on manic state” value is on record as “ineffective”.

`CCN(CC)C(=O)C1(c2ccccc2)CC1CN` (stereo not shown) [Milnaciplan]: the back pain result in the series on Fibromyalgia [2] is given as “rather deteriorated their back pain”.

`CNCCC(Oc1ccc(C(F)(F)F)cc1)c1ccccc1.Cl` (stereo not shown) [Prozac®]: the bulimia result in the series on Bulimia (before Cephadol) is “slightly improved the bulimia”. Further, the “frequency of overeating and emesis” value with Bulimia (previously two to three times a day) is given as “reduced to once daily”.

For `Fc1ccc([C@@H]2CCNC[C@H]2COc2ccc3c(c2)OCO3)cc1` [Paxil®, paroxetine], the depression result in the series with depression was “without any improvement”.

On to `CN(C)CCC=C1c2ccccc2CCc2ccccc21` [Triptanol], for which the “response of fibromyalgia to earlier medicines” value in the series on Fibromyalgia [3] is on record as “without any improvement”.

As to `O=C(NCCN1CCOCC1)c1ccc(Cl)cc1` [Moclobemide], the “response to earlier drugs” value in the series on Fibromyalgia [4] is recorded as “unresponsive”.
